Assay results reported in patent US20130288956A1, “COMBINED PHARMACEUTICAL COMPOSITION AS ANTIFUNGAL AGENT” (priority 2010, published 2013).

What was measured:
C. albicans = assay: In vitro combination effects, checkerboard method by micro dilution (FIC index); assay type: cell-based, Candida albicans
Protocol: (§1) A clinically isolated strain retained by the Medical Mycology Research Center of Chiba University (Code No. IFM) and a clinically isolated strain retained by the Life Science Research Center of Gifu University (Code No. E) were used as Candida and Aspergillus strains.
(§2) Fungus liquid obtained by static culturing at 35° C. for 48 hours in Sabouraud Dextrose liquid medium (SDB, Becton, Dickinson and Co.) was diluted with RPMI 1640 medium (Nissui Pharmaceutical Co., Ltd.) containing 0.165 M 3-(N-morpholino)propanesulfonic acid (MOPS) to prepare a fungus liquid having a fungus concentration of 1×10^3 cells/mL to 2×10^3 cells/mL.
(§3) Test Compound 1 (0.0005 μg/mL to 1.56 μg/mL) in the horizontal rows (12 wells) of a 96-well flat-bottom plate, and an antifungal agent in the form of ravuconazole (0.0015 μg/mL to 6.25 μg/mL), fluconazole (0.008 μg/mL to 32 μg/mL), voriconazole (0.0002 μg/mL to 8 μg/mL), micafungin (0.0005 μg/mL to 0.25 μg/mL), caspofungin (0.0005 μg/mL to 1 μg/mL) or amphotericin B (0.008 μg/mL to 8 μg/mL) in the vertical rows (8 wells) of the flat-bottom plate were prepared by diluting so as to blend together using RPMI 1640 medium containing 0.165 M MOPS to obtain a control group, a single Test Compound 1 group, each one of antifungal agents groups and combination groups of Test Compound 1+each one of antifungal agents.
(§4) The fungus liquids prepared in (1) were inoculated into the wells of 96-well flat-bottom plate containing 20 μL/well to 75 μL/well of the diluted test drug liquids prepared in (2) at 80 μL/well to 125 μL/well, followed by aerobically static culturing for 25 hours to 48 hours at 35° C.
(§5) Combination effects of Test Compound 1 and the antifungal agents were measured with the checkerboard method by micro dilution.
(§6) Interaction between both drugs was assessed by calculating the FIC index using the calculation formula indicated below.
(§7) The FIC index was calculated for each combination of antifungal agent concentrations that inhibited fungal growth, and the minimum value of the resulting FIC index was used as a combination FIC index.
(§8) A combination FIC index of 0.5 or less was evaluated as indicating synergistic action, that of 0.5 to 1 or less was evaluated as indicating additive action, and that of 1 to 4 or less was evaluated as indicating indifferent action.
(§9) FIC Index=(MIC value of drug A during combination use/MIC value of drug A when used alone)+(MIC value of drug B during combination use/MIC value of drug B when used alone) (Calculation Formula)

A. fumigatus = assay: as above; assay type: cell-based, Aspergillus fumigatus; settings: A. fumigatus (16 strains)
Protocol: as §1
(§10) An Aspergillus strain stored frozen at −80° C., or spores obtained by static culturing at 35° C. for 1 week in Potato Dextrose agar medium (PDA, Eiken Chemical Co., Ltd.) followed by scraping from the container with a metal loop, was diluted with RPMI 1640 medium containing 0.165 M MOPS to prepare a fungus liquid having a fungus concentration of 0.75×10^4 cells/mL to 1.33×10^4 cells/mL.
as §3, §4, §5, §6, §7, §8, §9

[1] = test system: A. flavus strain IFM50915; assay: A. flavus respiratory tract infection model; assay type: in vivo, mice
Protocol: (§11) Female DBA/2N mice (age 8 weeks, Charles River Laboratories Japan, Inc.) were subcutaneously administered 200 mg/kg of 5-fluorouracil 5 or 6 days prior to infection in order to put the mice into a compromised state.
(§12) A. fumigatus strain IFM52108 and A. flavus strain IFM50915 were used.
A liquid containing spores of A. flavus strain IFM50915 stored at −80° C. was thawed, and the number of spores was counted using a hemocytometer followed by diluting with sterile physiological saline containing 0.05% Tween 80 to a concentration of 0.6×10^6 cells/mL to 1.0×10^6 cells/mL to obtain an inoculation fungus liquid.
(§13) 50 μl of inoculation fungus liquid were inoculated into the nasal cavities of 9-week-old mice at 0.3×10^5 cells/mouse to 1.25×10^5 cells/mouse under Ketalar anesthesia.
(§14) 0.1 mL to 0.2 mL of each drug solution (dissolved in sterile physiological saline or 5% glucose solution, or dissolved in sterile physiological saline or 5% glucose solution containing 6.5% dimethylsulfoxide and 3.5% Tween 80) was administered to the individual and combination dose groups either into the peritoneal cavity or into the stomach using a gastric cannula corresponding to the administration route of the drug for 3 to 4 days at the rate of 1 to 2 times per day starting 0.5 hours to 1 hour after inoculation of fungus.
(§15) There were 5 to 9 animals in each group.
(§16) Infection protection results were assessed on survival rate 14 days after infection.

C. glabrata = assay: In vitro combination effects, checkerboard method by micro dilution (FIC index); assay type: cell-based, Candida glabrata; settings: C. glabrata (5 strains); combination use with Test Compound 1
Protocol: as §1, §2, §3, §4, §5, §6, §7, §8, §9

A. flavus = assay: as above; assay type: cell-based, Aspergillus flavus; settings: A. flavus (4 strains), Table 2
Protocol: as §1, §10, §3, §4, §5, §6, §7, §8, §9

C. tropicalis = assay: as above; assay type: cell-based, Candida tropicalis
Protocol: as §1, §2, §3, §4, §5, §6, §7, §8, §9

[2] = test system: A. fumigatus strain IFM52108; assay: A. fumigatus respiratory tract infection model; assay type: in vivo, mice
Protocol: as §11, §12
A liquid containing spores of A. fumigatus strain IFM52108 stored at −80° C. was applied to Potato Dextrose agar medium (PDA, Eiken Chemical Co., Ltd.) followed by static culturing for 5 to 7 days at 35° C. and suspending in sterile physiological saline containing 0.05% Tween 80.
The number of spores was counted using a hemocytometer, and the liquid was diluted with sterile physiological saline containing 0.05% Tween 80 to a concentration of 1.2×10^6 cells/mL to 2.5×10^6 cells/mL to obtain an inoculation fungus liquid.
as §13, §14, §15, §16

[3] = C. albicans (9 strains), combination use with Test Compound 1
[4] = C. tropicalis (5 strains), combination use with Test Compound 1

Compound: C[C@@H](c1nc(-c2ccc(C#N)cc2)cs1)[C@](O)(Cn1cncn1)c1ccc(F)cc1F [Ravuconazole, ravuconazole]
- Ratio indicating Additive effect of combination use with Test Compound 1 (C. albicans; [3]): 56%
- Ratio indicating Antagonistic effect of combination use with Test Compound 1 (C. albicans; [3]): 0%
- Ratio indicating Indifferent effect of combination use with Test Compound 1 (C. albicans; [3]): 0%
- Ratio indicating Synergistic effect of combination use with Test Compound 1 (C. albicans; [3]): 44%
- Effect of combination use with Test Compound 1 (FIC index evaluation) (C. albicans; Candida albicans IFM49738, resistant to azole antifungal agents): synergistic (A combination FIC index of 0.5 or less was evaluated as indicating synergistic action)
- Ratio indicating Additive effect of combination use with Test Compound 1 (A. fumigatus): 6%
- Ratio indicating Antagonistic effect of combination use with Test Compound 1 (A. fumigatus): 0%
- Ratio indicating Indifferent effect of combination use with Test Compound 1 (A. fumigatus): 94%
- Ratio indicating Synergistic effect of combination use with Test Compound 1 (A. fumigatus): 0%
- 14-day survival rate ([1]; RVCZ 2.5 mg/kg): 40%
- 14-day survival rate ([1]; RVCZ 5 mg/kg): 80%
- Ratio indicating Additive effect of combination use with Test Compound 1 (C. glabrata): 60%
- Ratio indicating Antagonistic effect of combination use with Test Compound 1 (C. glabrata): 0%
- Ratio indicating Indifferent effect of combination use with Test Compound 1 (C. glabrata): 0%
- Ratio indicating Synergistic effect of combination use with Test Compound 1 (C. glabrata): 40%
- Ratio indicating Additive effect of combination use with Test Compound 1 (A. flavus): 25%
- Ratio indicating Antagonistic effect of combination use with Test Compound 1 (A. flavus): 0%
- Ratio indicating Indifferent effect of combination use with Test Compound 1 (A. flavus): 75%
- Ratio indicating Synergistic effect of combination use with Test Compound 1 (A. flavus): 0%
- Ratio indicating Additive effect of combination use with Test Compound 1 (C. tropicalis; [4]): 0%
- Ratio indicating Antagonistic effect of combination use with Test Compound 1 (C. tropicalis; [4]): 0%
- Ratio indicating Indifferent effect of combination use with Test Compound 1 (C. tropicalis; [4]): 0%
- Ratio indicating Synergistic effect of combination use with Test Compound 1 (C. tropicalis; [4]): 100%
- Effect of combination use with Test Compound 1 (FIC index evaluation) (C. tropicalis; Candida tropicalis strains E83037, E83038, E83039, E83040 and E83041, resistant to azole antifungal agents): synergistic (A combination FIC index of 0.5 or less was evaluated as indicating synergistic action)
- 14-day survival rate ([2]; RVCZ 5 mg/kg): 0%
- 14-day survival rate ([2]; RVCZ 10 mg/kg): 40%
- Combination effects in mouse Aspergillus fumigatus infection model ([2]; combination with the test compound of the invention): synergistic combination effects
